Results: US20240041830A1, “CIRCULATING BIOMARKERS OF RESPONSE TO PD-1/PD-L1 BLOCKADE AND GSK-3 INHIBITION” (Brown University, priority 2022, published 2024)

Legend:
SW480 = assay: multicolor co-culture of SW480 and donor-derived CD8+ T cells; conditions: co-culture with donor-derived CD8+ T cells, 24 hours, normalized
Experimental: Isolation of donor-derived CD8+ T cells. An Easy Step Human CD8+ T Cell Isolation Kit was used to isolate CD8+ T cells from a donor PBMC sample via negative selection (Cat #, 17913, Stem Cell Technologies, Vancouver, Canada).
Multicolor immune cell co-culture experiments. A total of 10,000 HCT-116, SW480, or HT-29 colorectal cancer cells were plated per well in a clear-bottom, black-walled 48-well tissue culture plate and were allowed to adhere overnight. Cells were subsequently treated with DMSO, 5 μM or 10 μM elraglusib, or 10,000 TALL-104, donor-derived CD8+ T cells, or NK-92 cells (for an effector-to-tumor ratio of 1:1) for twenty-four hours. Immune cell monocultures were treated with DMSO, 5 μM or 10 μM elraglusib and cell viability was monitored to ensure that the concentrations of drug used were not cytotoxic to immune cells. […] 10× images were captured using a Nikon Ti-U Inverted Fluorescence Microscope and NIS-Elements F Package imaging software 3.22.00 Build 710 (Nikon Instruments Inc., New York, NY, USA). The number of red/green color cells in random fields was determined using thresholding and particle analysis in the Fiji modification (RRID: SCR_002285) of ImageJ and expressed as a dead/live cell ratio. […] At least one hundred cells were evaluated per sample, with three independent replicates. […]

93T449 liposarcoma = assay: Luminex cytokine profiling; format: cell-based; conditions: 0.5 μM, twenty-four hours
Experimental: (§1) Human cytokine profiling. Human cell line culture supernatants were analyzed using an R&D systems Human Premixed Multi-Analyte Kit (R&D Systems, Inc., Minneapolis, MN, USA) and a Luminex 200 (RRID: SCR_018025) Instrument (LX200-XPON-RUO, Luminex Corporation, Austin, TX, USA) according to the manufacturer's instructions. Sample levels of TNF-α, 4-1BB/TNFRSF9/CD137, IL-8/CXCL8, Ferritin, IFN-β, IL-10, CCL2/JE/MCP-1, VEGF, CXCL13/BLC/BCA-1, IFN-γ, CCL20/MIP-3 α, CCL3/MIP-1 α, CCL22/MDC, CCL4/MIP-1 β, Fas Ligand/TNFSF6, IL-17/1L-17A, IL-2, BAFF/BLyS/TNFSF13B, GM-CSF, CXCLS/ENA-78, TRANCE/TNFSF11/RANK L, CXCL9/MIG, G-CSF, IFN-γ R1/CD119, VEGFR3/Flt-4, C-Reactive Protein/CRP, CXCL11/I-TAC, IL-21, CXCL14/BRAK, IL-6, Fas/TNFRSF6/CD95, TRAIL R3/TNFRSF10C, IL-4, CCL5/RANTES, PD-L1/137-H1, CCL7/MCP-3/MARC, Chitinase 3-like 1, CXCL10/IP-10/CRG-2, IL-1 μ/IL-1F2, IL-7, Prolactin, CCL8/MCP-2, TRAIL R2/TNFRSF10B, M-CSF, IL-15, Granzyme B, IFN-α, TREM-1, IL-12/1L-23 p40, TRAIL/TNFSF10, CCL11/Eotaxin, and 1L-18/1L-1F4. Quantitative analysis with 6 standards and a minimum of 50 counts per bead region was used with the Luminex to generate analyte values reported as picograms/milliliter (pg/mL). Sample concentrations less than the lower limit of detection for each particular analyte were recoded as the lower limit value divided by 10. Sample concentrations above the upper limit of detection for a particular analyte were recoded as the upper limit of detection.
(§2) Saos-2 osteosarcoma and 93T449 liposarcoma cell lines were pretreated at IC50 with elraglusib. The cells were harvested for Western blot analysis after 48 hours of treatment. Both cancer cell lines as well as TALL-104 T-cells and NK-92 NK cells were treated with 0.5 μM elraglusib for twenty-four hours and harvested for Luminex cytokine profiling.

Saos-2 osteosarcoma = assay: Luminex cytokine profiling; format: cell-based; conditions: 0.5 μM, twenty-four hours
Experimental: as §1, §2

HT-29 = assay: Luminex 200 cytokine profiling of cell culture supernatant; format: cell-based, human; conditions: 1 μM or 5 μM, forty-eight hours
Experimental: (§3) Collection of cell culture supernatants used in cytokine measurements. Cells were plated at 3.5×10^4 cells in a 48-well plate (Thermo Fisher Scientific, Waltham, MA, USA) in complete medium and incubated at 37° C. with 5% CO2. At twenty-four hours after plating, almost all the tumor cells were adherent to the bottom of the flask and the complete medium was replaced with the drug-containing medium. Subsequently, the culture supernatants were collected after forty-eight hours of incubation and were frozen at −80° C. until the measurement of cytokines was performed. On the day of analysis, samples were thawed and centrifuged to remove cellular debris.
as §1
(§4) Huntington, Louie, Zhou, & EI-Deiry, Oncotarget, 12, 1980-1991 (2021). The inventors in this EXAMPLE treated tumor cells (HCT-116, HT-29) with 1 μM or 5 μM elraglusib for forty-eight hours and subsequently analyzed the cell culture supernatant using Luminex 200 technology (FIG. 2H,I).

HCT-116 = assay: as above; format: cell-based, human; conditions: 1 μM or 5 μM, forty-eight hours
Experimental: as §3, §1, §4

[1] = tested on: adult T-cell leukemia/lymphoma (ATLL); assay: case of refractory ATLL treated in clinical trial NCT03678883; format: in vivo, human
Source text: This EXAMPLE discloses a case of adult T-cell leukemia/lymphoma (ATLL) treated with elraglusib. A patient developed diffuse lymphadenopathy. […] CSF was positive for ATLL involvement. Twenty-two months after the diagnosis of ATLL was confirmed, as a fourth-line therapy in the presence of actively progressing disease, the patient was enrolled a Phase I/II study investigating the safety and efficacy of elraglusib, a selective small molecule inhibitor of glycogen synthase kinase-3 beta (GSK-3β) as monotherapy or in combination with chemotherapy in refractory solid tumors and hematological malignancies (NCT03678883). The patient started treatment with single-agent elraglusib (12.37 mg/kg IV twice weekly: 21-day cycle). […] This stability was confirmed on CT imaging after five and seven cycles of therapy.

[2] = Luminex 200 analysis of patient plasma (NCT03678883); format: in vivo, human; conditions: eight hours and twenty-four hours after treatment

For `Cn1cc(C2=C(c3coc4ccc(F)cc34)C(=O)NC2=O)c2cc3c(cc21)OCO3` [elraglusib], the “dead cells out of total cells” value (SW480; 5 μM) was 65%, the “dead cells out of total cells” value (SW480; 10 μM) was 75% and the TGF-α (93T449 liposarcoma) was “increase”. For the same compound, the TGF-α (Saos-2 osteosarcoma) was “increase”, the IL-6 (Saos-2 osteosarcoma; only Saos-2) was “increase” and the GDF-15 secretion (HT-29) was “decreased secretion”. For the same compound, the GM-CSF secretion (HT-29) was “decreased secretion”, the VEGF secretion (HT-29) was “decreased secretion” and the CCL5/RANTES in supernatant (HT-29; cell line not given) was “downregulated”. The DcR3 in supernatant (HT-29; cell line not given) was “downregulated”, the Fas in supernatant (HT-29; cell line not given) was “downregulated” and the “soluble PD-L1 (sPD-L1) in supernatant” value (HT-29; cell line not given) was “downregulated”. For the same compound, the GDF-15 secretion (HCT-116) was “decreased secretion”, the GM-CSF secretion (HCT-116) was “decreased secretion” and the VEGF secretion (HCT-116) was “decreased secretion”. For the same compound, the CCL5/RANTES in supernatant (HCT-116; cell line not given) was “downregulated”, the DcR3 in supernatant (HCT-116; cell line not given) was “downregulated” and the Fas in supernatant (HCT-116; cell line not given) was “downregulated”. The “soluble PD-L1 (sPD-L1) in supernatant” value (HCT-116; cell line not given) was “downregulated”, the tolerability ([1]; 12.37 mg/kg IV twice weekly) was “tolerated the treatment well without significant adverse effects” and the “sIL-2 r serum concentration” value ([1]; after nineteen cycles of treatment, 9,043 ng/ml one month before treatment) was 2,094 ng/ml. For the same compound, the “CT imaging response by RECIST Criteria” value ([1]; after ten cycles (seven months), 12.37 mg/kg IV twice weekly) was “partial response”, the CT imaging response ([1]; after two cycles, 12.37 mg/kg IV twice weekly, 21-day cycle) was “stable disease” and the “duration of sustained reduction of peripheral blood ATLL cells” value ([1]; elraglusib monotherapy) was “fifteen”. For the same compound, the “plasma cytokines, chemokines, growth factors vs baseline” value [2] was “upregulated”.
